The values below come from patent US8669072B2, “Oxadiazoline ligands for modulating the expression of exogenous genes via an ecdysone receptor complex” (Intrexon Corporation, priority 2003, dated 2014).

A word on the EC50: it is the concentration giving half of the maximal effect. In general, melting point refers to the temperature, or range, at which the solid turns liquid. As a reminder, the Kd is the equilibrium constant for the complex coming apart.

Series [1] deals with T1, GAL4 DBD-CfEcR(DEF)/VP16AD-MmRXRE (Choristoneura fumiferana, UniProt O77240).
T1 construct: The wild-type D, E, and F domains from spruce budworm Choristoneura fumiferana EcR (“CfEcR-DEF”)
Description: 13B3 assay: luciferase reporter gene induction in stable CHO clone 13B3. The note with it: for fold induction at 33.3 µM: 48 h, read-out: Fold Induction Average, 13B3 assay; for Rel Max FI, 13B3 assay: maximum fold induction relative to that of GS-E ligand. In kind it is cell-based. In a few lines:
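Stable CHO clone 13B3 co-expressing GAL4 DBD-CfEcR(DEF) and VP16AD-MmRXRE with a GAL4 RE-luciferase reporter; ligands from DMSO stocks diluted 300-fold. Luciferase read by luminescence 48 h after treatment, duplicate wells averaged. Fold induction = RLU treated/RLU DMSO; EC50 from three-parameter logistic fit.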

Series [2] addresses T2, GAL4 DBD (1-147)-CfEcR(DEF)/VP16AD-βRXREF-LmUSPEF (Choristoneura fumiferana, UniProt O77240).
T2 construct: The wild-type D, E, and F domains from spruce budworm Choristoneura fumiferana EcR (“CfEcR-DEF”)
Description: cell-based. The note with it: for Rel Max FI, 27-63 assay: maximum fold induction relative to that of GS-E ligand; for fold induction at 33.3 µM: 48 h, read-out: Fold Induction Average, 27-63 assay. The essentials:
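CHO clone stably carrying the GAL4-DBD–spruce budworm EcR(DEF) and VP16–RXR/USP chimeric receptor with a GAL4-responsive luciferase reporter; ligand added from DMSO stock diluted 300-fold.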

The target in a further series is T3, Bombyx mori EcR (VBE) (Bombyx mori, UniProt P49881).
T3 construct: expressed in transfected cells; host or cells: Human HEK-293 cells, retrovirally infected, clone Z3
T3 sequence (P49881 86-606 limits assumed): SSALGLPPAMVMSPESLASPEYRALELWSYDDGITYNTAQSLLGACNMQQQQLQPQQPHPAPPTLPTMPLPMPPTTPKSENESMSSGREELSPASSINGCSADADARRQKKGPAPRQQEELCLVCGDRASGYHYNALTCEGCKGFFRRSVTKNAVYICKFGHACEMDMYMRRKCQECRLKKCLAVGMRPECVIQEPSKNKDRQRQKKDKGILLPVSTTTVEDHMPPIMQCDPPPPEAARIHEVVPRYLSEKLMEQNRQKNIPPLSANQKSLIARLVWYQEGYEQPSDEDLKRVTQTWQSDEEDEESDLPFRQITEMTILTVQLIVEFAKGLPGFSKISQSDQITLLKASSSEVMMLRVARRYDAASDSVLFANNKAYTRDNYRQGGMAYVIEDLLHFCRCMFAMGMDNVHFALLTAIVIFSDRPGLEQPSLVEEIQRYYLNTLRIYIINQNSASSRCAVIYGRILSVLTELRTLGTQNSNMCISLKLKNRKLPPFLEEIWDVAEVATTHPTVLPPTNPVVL
T3 sequence (P19793 1-462 partner): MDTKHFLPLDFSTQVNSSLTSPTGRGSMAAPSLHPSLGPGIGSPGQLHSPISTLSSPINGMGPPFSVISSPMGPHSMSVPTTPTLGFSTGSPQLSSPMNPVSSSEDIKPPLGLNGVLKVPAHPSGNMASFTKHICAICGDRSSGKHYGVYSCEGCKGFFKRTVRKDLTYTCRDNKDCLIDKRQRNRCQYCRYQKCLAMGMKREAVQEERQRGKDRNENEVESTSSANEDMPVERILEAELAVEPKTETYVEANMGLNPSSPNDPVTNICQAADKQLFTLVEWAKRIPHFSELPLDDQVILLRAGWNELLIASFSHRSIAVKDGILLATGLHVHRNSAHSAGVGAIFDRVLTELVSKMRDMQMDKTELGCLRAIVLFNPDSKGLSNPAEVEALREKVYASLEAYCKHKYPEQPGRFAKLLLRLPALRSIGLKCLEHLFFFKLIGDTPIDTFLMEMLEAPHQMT
Nature of the series: Z3 assay: β-galactosidase reporter gene induction in HEK-293 clone Z3 (CVBE / 6XEcRE LacZ). Type of series: cell-based. The note with it: for fold induction at 33 µM: HEK293, 48 h, read-out: Fold Induction Average, Z3 assay; for Rel Max FI, Z3 assay: maximum fold induction relative to that of GS-E ligand. A general note: In a reporter assay the amount or activity of a reporter protein is the signal.

A further series has as its system Plodia. Nature of the series: Plodia EC50. Type of series: cell-based.
The next series deals with Kc. Nature of the series: Kc EC50. In kind it is cell-based.
Series [3] deals with CfEcR (CDEF)/CfUSP, GST fusion protein (Choristoneura fumiferana, UniProt O77240). Nature of the series: CfEcR (CDEF)/CfUSP GST fusion protein assay. In kind it is binding.
Series [4] deals with MTA (two-spotted spider mite). Nature of the series: Insect toxicity contact bioassay, MTA. Type of series: in vivo. Particulars: for Insect Toxicity LC50, MTA: in vivo. As for the experimental part:
(§1) The compound to be evaluated was dissolved in an appropriate solvent, usually a mix of acetone, methanol, and water. Test solutions were made by serial dilution of a stock test solution with acetone, methanol, and water. Initial evaluations were made at one or more concentrations on one or more of the following insects:
(§2) Contact bioassays (green peach aphid, two-spotted spider mite, white fly) were conducted by applying a solution of the test compound to the inside surface of a Petri dish. The solution was allowed to air-dry, then each dish was infested and the larvae from each treatment were transferred to a bioassay tray. The trays were held for one to seven days, and the mortality rating was determined for each treatment.

The test system of the next series is Beet Armyworm. Nature of the series: Insect toxicity feeding bioassay, BAW. Type of series: in vivo. The note with it: in vivo. As for the experimental part:
as §1
(§3) Feeding bioassays were conducted in bioassay trays containing insect diet. Treatments were made by applying 50 μL of test solution to the surface of the diet in each of 5 wells. After the test solution dried, each well was infested with a single neonate larva. The trays were held for six days and then the mortality rating was determined for each treatment.

For another series, the system named is Cabbage Looper. Nature of the series: Insect toxicity feeding bioassay, CL. The note with it: in vivo. In kind it is in vivo. As for the experimental part:
as §1, §3

The subject of a further series is Tobacco Budworm. Description: Insect toxicity bioassay, TBW. In kind it is in vivo. The note with it: in vivo. As for the experimental part:
as §1, §3
Some of the tobacco budworm tests were conducted as follows. A test solution containing 600 ppm was made by dissolving a compound of the invention in a 1:1 acetone:methanol solution, then adding water to give a 5:5:90 acetone:methanol:water solution, and finally a surfactant was added at an equivalent of 7.37 g of surfactant per 100 L of test solution (1 ounce of surfactant per 100 gallons of test solution). Appropriate dilutions were prepared in water from the 600 ppm solution. A detached cotton leaf, Gossypium hirsutum was placed on moistened filter paper in a Petri dish (100×20 mms). The leaf was sprayed with the test solution using a rotating turntable sprayer and allowed to dry. The dish was infested with 10 first instar larvae of the tobacco budworm and covered with the lid. If the larvae were alive two days after treatment, fresh untreated cotton leaves were added. All treatments were maintained at 23.9-26.7° C. (75-80° F.) under fluorescent light in a well-ventilated room. Percent mortality was determined at four days after treatment.

For a further series, the system named is WFN (white fly). Nature of the series: Insect toxicity contact bioassay, WFN. Type of series: in vivo. Particulars: for Insect Toxicity LC50, WFN: in vivo. As for the experimental part: as §1, §2

Like-named read-outs stand apart in the source and are kept apart here.

CfEcR (CDEF)/CfUSP, GST fusion protein, sequence (O77240 entry or part of it): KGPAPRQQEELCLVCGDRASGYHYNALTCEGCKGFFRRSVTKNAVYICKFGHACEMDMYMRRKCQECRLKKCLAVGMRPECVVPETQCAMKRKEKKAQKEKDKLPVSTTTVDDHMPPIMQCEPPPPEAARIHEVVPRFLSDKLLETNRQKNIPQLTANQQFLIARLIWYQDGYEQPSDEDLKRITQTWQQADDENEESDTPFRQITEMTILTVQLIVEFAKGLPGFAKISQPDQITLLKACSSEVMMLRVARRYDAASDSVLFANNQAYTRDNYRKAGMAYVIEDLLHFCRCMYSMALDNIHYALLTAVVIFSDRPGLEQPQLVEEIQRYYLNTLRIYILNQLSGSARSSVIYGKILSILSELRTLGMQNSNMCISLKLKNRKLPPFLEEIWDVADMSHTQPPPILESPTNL
CfEcR (CDEF)/CfUSP, GST fusion protein, sequence (O76202 whole entry, further chain, the tested form may be a part): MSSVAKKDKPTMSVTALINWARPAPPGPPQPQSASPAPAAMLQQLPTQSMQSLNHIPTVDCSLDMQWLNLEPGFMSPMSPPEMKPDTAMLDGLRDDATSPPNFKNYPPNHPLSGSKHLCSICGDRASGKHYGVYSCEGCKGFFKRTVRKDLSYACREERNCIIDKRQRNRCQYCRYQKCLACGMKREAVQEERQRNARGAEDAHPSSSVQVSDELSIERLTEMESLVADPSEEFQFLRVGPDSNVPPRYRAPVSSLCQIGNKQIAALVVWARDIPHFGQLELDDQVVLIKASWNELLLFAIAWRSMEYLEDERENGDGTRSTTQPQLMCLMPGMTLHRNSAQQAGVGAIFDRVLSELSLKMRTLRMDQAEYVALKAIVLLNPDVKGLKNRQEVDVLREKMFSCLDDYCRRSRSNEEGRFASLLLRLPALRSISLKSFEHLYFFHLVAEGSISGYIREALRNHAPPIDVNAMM

With `COc1cccc(C(=O)NN2C(c3ccccc3)=NOC2(C)C)c1C` [RG-120042, N-(5,5-dimethyl-3-phenyl-[1,2,4]oxadiazol-4-yl)-3-methoxy-2-methyl-benzamide], the melting point was 141 to 142 °C. Also, the fold induction at 33.3 µM in series [1] is 3.3. Also, in series [2], the EC50 was above 33 µM and the “Rel Max FI, 27-63 assay” value came to 0. Besides, the fold induction at 33 µM on Bombyx mori EcR (VBE) was 19.3. In the series on Plodia, the EC50 came to 0.481 µM. Further, the EC50 with Kc is 29 µM.

Consider `CCc1c(OC)cccc1C(=O)NN1C(c2ccccc2)=NOC1(C)CC` (centres unmarked) [RG-120076], for which, in series [1], the EC50 was above 33.3 µM; the fold induction at 33.3 µM was determined as 20.2; the “Rel Max FI, 13B3 assay” value was found to be 0.05. Moreover, in [2], the EC50 is around 20 µM; the fold induction at 33.3 µM amounted to 4090; the “Rel Max FI, 27-63 assay” value turned out to be 1.4. In addition, on Bombyx mori EcR (VBE), the EC50 came out at 12.4 µM; the fold induction at 33 µM stood at 0.2; the “Rel Max FI, Z3 assay” value is recorded as 0.9. The molecule further displayed an EC50 in series [3] of 0.00835 µM. In addition, in series [4], the “Insect Toxicity LC50, MTA” value is 92 ppm. The “Insect Toxicity LC50, BAW” value in the series on Beet Armyworm stood at 47 ppm. Further, in the series with Cabbage Looper, the “Insect Toxicity LC50, CL” value turned out to be 47 ppm. For the same molecule, the “Insect Toxicity LC50, TBW” value in the series on Tobacco Budworm is above 150 ppm. Further, the “Insect Toxicity LC50, WFN” value in the series on WFN (white fly) is on record as above 150 ppm.

Regarding `CCc1c(OC)cccc1C(=O)NN1C(c2cc(C)cc(C)c2)=NOC1(C)C` [RG-120080, N-[3-(3,5-dimethyl-phenyl)-5,5-dimethyl-[1,2,4]oxadiazol-4-yl]-2-ethyl-3-methoxy-benzamide], in [1], the EC50 was 12.3 µM; the fold induction at 33.3 µM came to 717; the “Rel Max FI, 13B3 assay” value turned out to be 1.04. Also, in series [2], the EC50 was found to be 8.35 µM and the “Rel Max FI, 27-63 assay” value was determined as 1.29. At Bombyx mori EcR (VBE), a half-maximal response (EC50) required 3.95 µM; the fold induction at 33 µM amounted to 310; the “Rel Max FI, Z3 assay” value is reported as 0.71. In series [3], this molecule registered a dissociation constant Kd of 0.0119 µM. The “Insect Toxicity % control @ 150 ppm, MTA” value in series [4] (150 ppm) is 0% @ 150. The “Insect Toxicity LC50, BAW” value in the series with Beet Armyworm came out at 23 ppm. Further, in the series on Cabbage Looper, the “Insect Toxicity LC50, CL” value amounted to 47 ppm. Moreover, the “Insect Toxicity LC50, TBW” value in the series with Tobacco Budworm was above 150 ppm. In the series on WFN (white fly) (150 ppm), the “Insect Toxicity % control @ 150 ppm, WFN” value is on record as 0% @ 150.

As to `CCc1ccc(C(=O)NN2C(c3ccccc3)=NOC23CCCC3)cc1` [RG-120125], in series [1], the EC50 was above 33.3 µM; the fold induction at 33.3 µM stood at 82.6; the “Rel Max FI, 13B3 assay” value was 0.16. In addition, in series [2], the EC50 is around 20 µM; the fold induction at 33.3 µM was 510; the “Rel Max FI, 27-63 assay” value was 0.27. On Bombyx mori EcR (VBE), the EC50 is 10 µM; the fold induction at 33 µM came to 254; the “Rel Max FI, Z3 assay” value is recorded as 0.67. Further, the EC50 in [3] (GST fusion protein, read-out: CfEcR EC50) turned out to be 0.0579 µM. Further, the “Insect Toxicity LC50, MTA” value in series [4] worked out at 167 ppm. Moreover, the “Insect Toxicity LC50, BAW” value in the series on Beet Armyworm is reported as 98 ppm. For the same molecule, in the series on Cabbage Looper, the “Insect Toxicity LC50, CL” value was 23 ppm. The “Insect Toxicity LC50, TBW” value in the series with Tobacco Budworm was above 150 ppm. The “Insect Toxicity LC50, WFN” value in the series with WFN (white fly) is 150 ppm.

For the molecule `CCc1ccc(C(=O)NN2C(c3cc(C)cc(C)c3)=NOC2(C)CC)cc1` (centres unmarked) [RG-120128], the fold induction at 33.3 µM in series [1] came to 129. In series [2], the EC50 was around 20 µM; the fold induction at 33.3 µM worked out at 338; the “Rel Max FI, 27-63 assay” value is on record as 0.18. The fold induction at 33 µM on Bombyx mori EcR (VBE) was found to be 403. Also, it took 0.0285 µM to reach a half-maximal effect in series [3] (EC50). The “Insect Toxicity LC50, MTA” value in series [4] is above 150 ppm. In addition, the “Insect Toxicity LC50, BAW” value in the series with Beet Armyworm is reported as 47 ppm. Moreover, the “Insect Toxicity LC50, CL” value in the series with Cabbage Looper came to 17 ppm. The “Insect Toxicity LC50, TBW” value with Tobacco Budworm was above 150 ppm. In addition, the “Insect Toxicity LC50, WFN” value with WFN (white fly) is recorded as above 150 ppm.
